Test results published in PubChem BioAssay AID330 (DTP/NCI, 2004).
Several values for one entry are separate records, joined by “and”; a condition that tells them apart may be missing. Identical values can stand only once. Toxic doses and inconclusive results are not listed.

Test system: P388 leukemia ip, CD2F1 mice, survival T/C
Test: NCI In Vivo Anticancer Drug Screen. Data for tumor model P388 Leukemia (intraperitoneal) in CD2F1 (CDF1) mice
Conditions: endpoint: median survival time, higher = longer survival
Procedure, shortened: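 Mice carrying the transplanted tumor received test compound or vehicle. Survival was recorded in each group, and the value is the treated-group measurement divided by that of the vehicle-treated control group.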

[1] = dose: 60.0 mg/kg/injection, schedule: Q01DX005 (ip), vehicle: saline with Tween-80
[2] = dose: 120.0 mg/kg/injection, schedule: Q01DX005 (ip), vehicle: saline with Tween-80
[3] = dose: 240.0 mg/kg/injection, schedule: Q01DX005 (ip), vehicle: saline with Tween-80
[4] = dose: 50.0 mg/kg/injection, schedule: Q01DX009 (ip), vehicle: saline with Tween-80
[5] = dose: 100.0 mg/kg/injection, schedule: Q01DX009 (ip), vehicle: saline with Tween-80
[6] = dose: 200.0 mg/kg/injection, schedule: Q01DX009 (ip), vehicle: saline with Tween-80
[7] = dose: 50.0 mg/kg/injection, schedule: Q01DX005 (ip), vehicle: saline with Tween-80
[8] = dose: 100.0 mg/kg/injection, schedule: Q01DX005 (ip), vehicle: saline with Tween-80
[9] = dose: 200.0 mg/kg/injection, schedule: Q01DX005 (ip), vehicle: saline with Tween-80
[10] = dose: 50.0 mg/kg/injection, schedule: Q01DX005 (ip), vehicle: Klucel (hydroxypropylcellulose) (HPC)
[11] = dose: 100.0 mg/kg/injection, schedule: Q01DX005 (ip), vehicle: Klucel (hydroxypropylcellulose) (HPC)
[12] = dose: 100.0 mg/kg/injection, schedule: Q01DX001 (ip), vehicle: saline with Tween-80
[13] = dose: 200.0 mg/kg/injection, schedule: Q01DX001 (ip), vehicle: saline with Tween-80
[14] = dose: 400.0 mg/kg/injection, schedule: Q01DX001 (ip), vehicle: saline with Tween-80
[15] = dose: 50.0 mg/kg/injection, schedule: Q01DX009 (ip), vehicle: saline
[16] = dose: 100.0 mg/kg/injection, schedule: Q01DX009 (ip), vehicle: saline
[17] = dose: 200.0 mg/kg/injection, schedule: Q01DX009 (ip), vehicle: saline
[18] = dose: 25.0 mg/kg/injection, schedule: Q01DX009 (ip), vehicle: saline
[19] = dose: 6.25 mg/kg/injection, schedule: Q01DX009 (ip), vehicle: saline with Tween-80
[20] = dose: 12.5 mg/kg/injection, schedule: Q01DX009 (ip), vehicle: saline with Tween-80
[21] = dose: 25.0 mg/kg/injection, schedule: Q01DX009 (ip), vehicle: saline with Tween-80

Nc1nncs1
T/C (dose: 6.25 mg/kg/injection, schedule: Q01DX009 (ip), vehicle: water): 107 % of control and 108 % of control and 94 % of control
T/C (dose: 7.5 mg/kg/injection, schedule: Q01DX009 (ip), vehicle: water): 112 % of control
T/C (dose: 15.0 mg/kg/injection, schedule: Q01DX009 (ip), vehicle: water): 101 % of control
T/C (dose: 20.0 mg/kg/injection, schedule: Q01DX005 (ip), vehicle: saline): 103 % of control and 109 % of control
T/C (dose: 30.0 mg/kg/injection, schedule: Q01DX009 (ip), vehicle: water): 117 % of control
T/C (dose: 40.0 mg/kg/injection, schedule: Q01DX005 (ip), vehicle: saline): 122 % of control
T/C (dose: 80.0 mg/kg/injection, schedule: Q01DX005 (ip), vehicle: saline): 172 % of control and 188 % of control
T/C (dose: 120.0 mg/kg/injection, schedule: Q01DX009 (ip), vehicle: water): 104 % of control
T/C (dose: 160.0 mg/kg/injection, schedule: Q01DX005 (ip), vehicle: saline): 69 % of control

COc1cc2c(c(OC(C)=O)c1OC(C)=O)-c1ccc(SC)c(=O)cc1C(NC(C)=O)CC2 (configuration not stated)
T/C (dose: 1.25 mg/kg/injection, schedule: Q01DX009 (ip), vehicle: Klucel (hydroxypropylcellulose) (HPC)): 110 % of control
T/C (dose: 2.5 mg/kg/injection, schedule: Q01DX009 (ip), vehicle: Klucel (hydroxypropylcellulose) (HPC)): 105 % of control
T/C (dose: 5.0 mg/kg/injection, schedule: Q01DX009 (ip), vehicle: Klucel (hydroxypropylcellulose) (HPC)): 93 % of control
T/C (dose: 9.0 mg/kg/injection, schedule: Q01DX009 (ip), vehicle: Klucel (hydroxypropylcellulose) (HPC)): 100 % of control
T/C (dose: 10.0 mg/kg/injection, schedule: Q01DX009 (ip), vehicle: Klucel (hydroxypropylcellulose) (HPC)): 105 % of control
T/C (dose: 18.0 mg/kg/injection, schedule: Q01DX009 (ip), vehicle: Klucel (hydroxypropylcellulose) (HPC)): 89 % of control
T/C (dose: 36.0 mg/kg/injection, schedule: Q01DX009 (ip), vehicle: Klucel (hydroxypropylcellulose) (HPC)): 100 % of control

N=C1C=CC2C(=Nc3ccccc3[N+]2=O)N1Cc1ccncc1 (configuration not stated)
T/C [1]: 98 % of control
T/C [2]: 90 % of control
T/C [3]: 98 % of control

CC(C)Nc1nc(N)nc(N)n1
T/C [4]: 100 % of control
T/C [5]: 91 % of control
T/C [6]: 96 % of control

Cc1cc(C)nc(NS(=O)(=O)c2ccc(N=c3c4ccccc4n(-c4ccccc4)c4ccccc34)cc2)n1
T/C [7]: 97 % of control
T/C [8]: 109 % of control
T/C [9]: 90 % of control

CC(=O)NC(C(=O)O)C(C)(C)SN=O (configuration not stated)
T/C [4]: 93 % of control
T/C [5]: 98 % of control
T/C [6]: 95 % of control

CNc1cccnc1C1OCCO1
T/C [10]: 96 % of control
T/C [11]: 102 % of control
T/C (dose: 200.0 mg/kg/injection, schedule: Q01DX005 (ip), vehicle: Klucel (hydroxypropylcellulose) (HPC)): 100 % of control

COC(=O)C(CO)NC(=O)C(Cc1cnc[nH]1)N(C(=O)OCc1ccccc1)C(=O)OCc1ccccc1 (configuration not stated)
T/C [7]: 94 % of control
T/C [8]: 96 % of control
T/C [9]: 94 % of control

CC1=CO/C(=C\[Si](C)(C)C)OC1c1ccccc1 (configuration not stated)
T/C [12]: 104 % of control
T/C [13]: 108 % of control
T/C [14]: 103 % of control

Cc1onc(-c2ccccc2)c1C(=O)c1ccccc1
T/C [15]: 99 % of control
T/C [16]: 100 % of control
T/C [17]: 99 % of control

Cc1c(-c2ccccc2)noc1-n1nnc2ccccc2c1=O
T/C [1]: 100 % of control
T/C [2]: 100 % of control
T/C [3]: 89 % of control

C[Si](C)(C)CSCC#N
T/C [12]: 98 % of control
T/C [13]: 107 % of control

O=C(NNC(=O)c1ccccc1O)Nc1ccc(Cl)cc1C(F)(F)F
T/C [4]: 103 % of control
T/C [5]: 106 % of control
T/C [6]: 100 % of control

CCCC(O)C(NC(=O)CCl)C(=O)O (configuration not stated)
T/C (dose: 12.5 mg/kg/injection, schedule: Q01DX009 (ip), vehicle: saline): 105 % of control and 97 % of control
T/C [18]: 100 % of control
T/C [15]: 104 % of control and 88 % of control
T/C [16]: 91 % of control
T/C [17]: 86 % of control

CCN(CC)CCSc1cc(C)c2ccc(N)nc2n1
T/C (dose: 60.0 mg/kg/injection, schedule: Q01DX005 (ip), vehicle: Klucel (hydroxypropylcellulose) (HPC)): 100 % of control
T/C (dose: 120.0 mg/kg/injection, schedule: Q01DX005 (ip), vehicle: Klucel (hydroxypropylcellulose) (HPC)): 106 % of control

CCC(Oc1c2ccoc2c(OC)c2oc(C)cc(=O)c12)C(=O)OCCN1CCOCC1 (configuration not stated)
T/C [7]: 102 % of control
T/C [8]: 104 % of control
T/C [9]: 98 % of control

N#CC(C(=O)CCC(=O)NCCc1ccccc1)c1nc2ccccc2s1 (configuration not stated)
T/C [1]: 103 % of control
T/C [2]: 100 % of control
T/C [3]: 100 % of control

N=C(N)c1ccc(N=Nc2cc(/C=C/c3ccccc3)ccc2O)cc1
T/C [10]: 110 % of control
T/C [11]: 92 % of control

CC(=O)NC(/C=C/c1ccc(Cl)c(Cl)c1)c1cccc(O)c(=O)c1 (configuration not stated)
T/C [19]: 100 % of control
T/C [20]: 99 % of control
T/C [21]: 113 % of control
T/C [18]: 119 % of control
T/C [15]: 124 % of control
T/C [16]: 98 % of control

C/C(CCn1[nH]c(=O)ccc1=O)=N\NS(=O)(=O)c1ccc(C)cc1
T/C [1]: 103 % of control
T/C [2]: 109 % of control
T/C (dose: 134.0 mg/kg/injection, schedule: Q01DX005 (ip), vehicle: saline with Tween-80): 105 % of control

C1CCC2OCCOCCOCCOCCOC2C1 (configuration not stated)
T/C (dose: 50.0 mg/kg/injection, schedule: Q01DX005 (ip), vehicle: saline): 95 % of control
T/C (dose: 100.0 mg/kg/injection, schedule: Q01DX005 (ip), vehicle: saline): 95 % of control

O=C1CCC(N2C(=O)C3C4CCC(O4)C3C2=O)C(=O)N1 (configuration not stated)
T/C [1]: 101 % of control
T/C [2]: 94 % of control
T/C [3]: 100 % of control

O[C@H](c1cc(C(F)(F)F)nc2c(C(F)(F)F)cccc12)[C@@H]1CCCCN1
T/C (dose: 3.13 mg/kg/injection, schedule: Q01DX009 (ip), vehicle: saline with Tween-80): 109 % of control
T/C [19]: 102 % of control
T/C [20]: 116 % of control
T/C [21]: 106 % of control

COc1cc(/C=C/c2nnc3c4ccccc4cnn23)cc(OC)c1OC
T/C [20]: 99 % of control
T/C [21]: 100 % of control
T/C [4]: 101 % of control and 91 % of control
T/C [5]: 93 % of control
T/C [6]: 94 % of control

Cc1cc(O)c2c3c(c(=O)oc2c1)CP(=O)(c1ccccc1)CC3 (configuration not stated)
T/C [12]: 94 % of control
T/C [13]: 91 % of control
T/C [14]: 91 % of control

COc1cc(CCN)ccc1O
T/C [16]: 104 % of control and 98 % of control
T/C [17]: 100 % of control and 102 % of control
T/C (dose: 400.0 mg/kg/injection, schedule: Q01DX009 (ip), vehicle: saline): 100 % of control and 107 % of control
T/C (dose: 600.0 mg/kg/injection, schedule: Q01DX009 (ip), vehicle: saline): 102 % of control and 114 % of control

CCC/C(=N\NC(N)=NC)c1ccc2c(c1)Cc1ccccc1-2
T/C (dose: 50.0 mg/kg/injection, schedule: Q04DX002 (ip), vehicle: saline with Tween-80): 106 % of control
T/C (dose: 100.0 mg/kg/injection, schedule: Q04DX002 (ip), vehicle: saline with Tween-80): 102 % of control
T/C (dose: 200.0 mg/kg/injection, schedule: Q04DX002 (ip), vehicle: saline with Tween-80): 104 % of control

O=c1[nH]c(=O)n(C(c2ccccc2)c2ccccc2)cc1F
T/C (dose: 12.5 mg/kg/injection, schedule: Q01DX009 (ip), vehicle: suspension in saline): 100 % of control
T/C (dose: 25.0 mg/kg/injection, schedule: Q01DX009 (ip), vehicle: suspension in saline): 89 % of control
T/C (dose: 50.0 mg/kg/injection, schedule: Q01DX009 (ip), vehicle: suspension in saline): 99 % of control
T/C (dose: 75.0 mg/kg/injection, schedule: Q01DX009 (ip), vehicle: suspension in saline): 101 % of control
T/C (dose: 100.0 mg/kg/injection, schedule: Q01DX009 (ip), vehicle: suspension in saline): 94 % of control
T/C (dose: 150.0 mg/kg/injection, schedule: Q01DX009 (ip), vehicle: suspension in saline): 90 % of control
